Measurements reported in PubChem BioAssay (NCI).
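Compound exposure: 48 hours, 5 concentrations, 96-well plates. Definition used: TGI = concentration required for complete inhibition of growth.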

Key:
Test in all cases: DTP human tumour cell line panel, 48 h
[1] = tested on: 786-0 renal
[2] = tested on: A498 renal
[3] = tested on: A549 NSCLC
[4] = tested on: ACHN renal
[5] = tested on: BT-549 breast
[6] = tested on: CAKI-1 renal
[7] = tested on: CCRF-CEM leukemia
[8] = tested on: COLO 205 colon
[9] = tested on: DU-145 prostate
[10] = tested on: EKVX NSCLC
[11] = tested on: HCC-2998 colon
[12] = tested on: HCT-116 colon
[13] = tested on: HCT-15 colon
[14] = tested on: HL-60(TB) leukemia
[15] = tested on: HOP-62 NSCLC
[16] = tested on: HOP-92 NSCLC
[17] = tested on: HS 578T breast
[18] = tested on: HT29 colon
[19] = tested on: IGROV1 ovarian
[20] = tested on: K-562 leukemia
[21] = tested on: KM12 colon
[22] = tested on: LOX IMVI melanoma
[23] = tested on: M14 melanoma
[24] = tested on: MALME-3M melanoma
[25] = tested on: MCF7 breast
[26] = tested on: MDA-MB-231 breast
[27] = tested on: MDA-MB-435
[28] = tested on: MDA-N
[29] = tested on: MOLT-4 leukemia
[30] = tested on: NCI-H226 lung
[31] = tested on: NCI-H23 lung
[32] = tested on: NCI-H460 lung
[33] = tested on: NCI-H522 lung
[34] = tested on: NCI/ADR-RES ovarian
[35] = tested on: OVCAR-3 ovarian
[36] = tested on: OVCAR-4 ovarian
[37] = tested on: OVCAR-5 ovarian
[38] = tested on: OVCAR-8 ovarian
[39] = tested on: PC-3 prostate
[40] = tested on: RPMI-8226 leukemia
[41] = tested on: RXF 393 renal
[42] = tested on: SF-268 CNS
[43] = tested on: SF-295 CNS
[44] = tested on: SF-539 CNS
[45] = tested on: SK-MEL-2 melanoma
[46] = tested on: SK-MEL-28 melanoma
[47] = tested on: SK-MEL-5 melanoma
[48] = tested on: SK-OV-3 ovarian
[49] = tested on: SN12C renal
[50] = tested on: SNB-19 CNS
[51] = tested on: SNB-75 CNS
[52] = tested on: SR leukemia
[53] = tested on: SW-620 colon
[54] = tested on: T-47D breast
[55] = tested on: TK-10 renal
[56] = tested on: U251 CNS
[57] = tested on: UACC-257 melanoma
[58] = tested on: UACC-62 melanoma
[59] = tested on: UO-31 renal

C=C1CC2(CC(c3ccccc3OC)OC(c3ccccc3OC)C2)OC1=O (centres undefined)
TGI [1]: 3.01 µM
TGI [2]: 12.1 µM
TGI [3]: 11.2 µM
TGI [4]: 5.41 µM
TGI [5]: 3.12 µM
TGI [6]: 7.13 µM
TGI [7]: 4.47 µM
TGI [8]: 4.06 µM
TGI [9]: 20.2 µM
TGI [10]: 27.7 µM
TGI [11]: 5.92 µM
TGI [12]: 3.3 µM
TGI [13]: 4.5 µM
TGI [14]: 3.51 µM
TGI [15]: 26.8 µM
TGI [16]: 3.09 µM
TGI [17]: 4.9 µM
TGI [18]: 4.32 µM
TGI [19]: 3.37 µM
TGI [20]: 5.32 µM
TGI [21]: 6.65 µM
TGI [22]: 2980 nM
TGI [23]: 3.35 µM
TGI [24]: 3.31 µM
TGI [25]: 3.32 µM
TGI [26]: 3.45 µM
TGI [27]: 3.56 µM
TGI [28]: 3.44 µM
TGI [29]: 5.52 µM
TGI [30]: 19.4 µM
TGI [31]: 4.62 µM
TGI [32]: 17.7 µM
TGI [33]: 2980 nM
TGI [34]: 7.73 µM
TGI [35]: 3.7 µM
TGI [36]: 11 µM
TGI [37]: 18.6 µM
TGI [38]: 3.56 µM
TGI [39]: 4.33 µM
TGI [40]: 1450 nM
TGI [41]: 3.31 µM
TGI [42]: 6.41 µM
TGI [43]: 14.4 µM
TGI [44]: 4.95 µM
TGI [45]: 3.45 µM
TGI [46]: 2170 nM
TGI [47]: 7.05 µM
TGI [48]: 25.5 µM
TGI [49]: 4.05 µM
TGI [50]: 14 µM
TGI [51]: 9.09 µM
TGI [52]: 4.92 µM
TGI [53]: 4.03 µM
TGI [54]: 3.4 µM
TGI [55]: 4.31 µM
TGI [56]: 13.6 µM
TGI [57]: 4.23 µM
TGI [58]: 4.26 µM
TGI [59]: 2850 nM
